According to patent US10738074B2, “Cyclic di-nucleotide compounds as STING agonists” (Merck Sharp & Dohme Corp., priority 2015, dated 2020):

Key:
[1] = biological target: full-length WT STING (Homo sapiens (Human), UniProt Q86WV6, H232R); test: 3H-cGAMP filtration binding assay (WT STING); settings: competition with tritiated cGAMP, WT STING membrane
Text: (§1) The ability of compounds to bind STING is quantified by their ability to compete with tritiated cGAMP ligand for human STING receptor membrane using a radioactive filter-binding assay. The binding assay employs STING receptor obtained from Trichoplusia ni cell membranes (Tni; Expression Systems, cat #94-002F, www.expressionsystems.com) overexpressing full-length WT STING prepared in-house and tritiated cGAMP ligand also purified in-house.
The basic WT STING filtration assay protocol is as follows:
The filter plates were then dried at 55° C. for 30 min using a pressurized VWR oven before 30 uL of Ultima GoldF scintillate was added to each well. Tritium levels for each reaction well were then measured using a PerkinElmer TopCount plate reader.
(§2) After normalization to controls, the percent activity for each compound concentration was calculated by measuring the amount of remaining radioactivity. The plot of percent activity versus the log of compound concentration was fit with a 4-parameter dose response equation to calculate EC50 values.

[2] = test system: THP1 cells; test: IFN-β secretion in THP1 cell culture (5 h); type: cell-based, human; settings: IFN-β secretion, THP1 cells, 5 h, 30 μM; for activation at 30 µM: Homo sapiens, THP-1, 5 h, read-out: % Effect at 30 μM relative to 2′3′-cGAMP
Experimental: The ability of compounds to stimulate the secretion of interferon-beta from THP1 cells was measured using a human IFN-β AlphaLISA kit (Perkin Elmer, Cat. No. AL265F). The basic protocol is as follows:
A Labcyte Echo 550 acoustic dispenser was used to transfer 120 nL of compound dissolved in DMSO into the wells of an empty, sterile 384-well microplate, (Corning, Cat. No. 3712). THP1 cells (American Type Culture Collection, Cat. No. TIB202) previously frozen in Recovery Medium (Life Technologies, Cat. No. 12648-010) were thawed and immediately diluted 10-fold into 37° C. assay medium (RPMI 1640+L-Glutamine & phenol red, Life Technologies, Cat. No. 11875-085; 0.5% heat inactivated fetal bovine serum, Sigma Aldrich, Cat. No. F4135; 1 mM Sodium Pyruvate, Life Technologies, Cat. No. 11360-070; lx non-essential amino acids; Life Technologies, Cat. No. 11140-050). The cell viability and count was ascertained using a Beckman Coulter V-Cell XR cell counter. The cells suspension was centrifuged at 200×g for 5 min at RT. Cells were resuspended to a density of 0.8×10^6/mL in 37° C. assay medium. Subsequent liquid transfers were performed using either a Matrix electronic multichannel pipette or an Agilent Bravo Automated Liquid Handling Platform.
The assay was started by dispensing 40 μL of the previously prepared cell suspension into the wells of the plate containing compounds. After 5 h incubation at 37° C., 5% CO2 in a humidified atmosphere, the plate of cells and compounds was centrifuged at 200×g for 5 min at RT. From each well, 5 μL of supernatant was transferred into corresponding wells of a white 384-well plate (Perkin Elmer, Cat. No. 6005620). To these supernatant-containing wells was added 10 μL of 5× Anti-Analyte Acceptor beads (50 μg/mL of AlphaLISA HiBlock Buffer) and incubated for 30 min at RT while shaking on an orbital plate shaker. To each well was added 10 μL of 5× Biotinylated Antibody Anti-analyte (5 nM in AlphaLISA HiBlock Buffer) and incubated on an orbital plate shaker for 60 min at RT or overnight at 4° C. To each well was added 25 μL of 2× SA-Donor beads (80 μg/mL in AlphaLISA HiBlock Buffer) and incubated for 30-45 min at RT in the dark while shaking on an orbital plate shaker. The plate was then read on a Perkin Elmer Envision (λex=680 nm, λem=[…]). The percent effect of the AlphaLISA signal at each compound concentration was calculated based on 30 uM cGAMP positive controls and 0.3% DMSO negative controls. The plot of percent effect versus the log of compound concentration was fit with a 4-parameter concentration response equation to calculate EC50 values. The test compounds were tested at concentrations 30000, 10000, 3333, 1111, 370.4, 123.4, 41.2, 13.7, 4.6, and 1.5 nM with 0.3% residual DMSO.
Compounds of the disclosure were evaluated for IFN-β secretion in THP1 cell culture as described above. The following table tabulates the biological data for these compounds as percent activation relative to 2′3′-cGAMP at the 30 μM concentration.

[3] = biological target: full-length HAQ STING (Homo sapiens (Human), UniProt Q86WV6, G230A/H232R/R293Q/R71H); test: 3H-cGAMP filtration binding assay (HAQ STING); settings: competition with tritiated cGAMP, HAQ STING membrane
full-length HAQ STING, sequence (Q86WV6 other isoform, or with tags, fused parts or gaps, stated change not applied): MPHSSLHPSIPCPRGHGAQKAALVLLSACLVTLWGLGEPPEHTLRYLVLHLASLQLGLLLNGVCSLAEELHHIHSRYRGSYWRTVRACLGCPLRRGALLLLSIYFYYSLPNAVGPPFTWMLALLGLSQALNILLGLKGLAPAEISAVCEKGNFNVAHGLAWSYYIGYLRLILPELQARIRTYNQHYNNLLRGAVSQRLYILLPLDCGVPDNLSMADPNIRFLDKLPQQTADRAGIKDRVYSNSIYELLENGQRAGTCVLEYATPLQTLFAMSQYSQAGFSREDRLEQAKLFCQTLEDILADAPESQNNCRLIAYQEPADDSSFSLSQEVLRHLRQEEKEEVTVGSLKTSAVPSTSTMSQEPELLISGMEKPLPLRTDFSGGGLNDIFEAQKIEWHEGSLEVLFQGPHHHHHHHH
Text: as §1, with “the” for “their”, “Hi-Five” for “Trichoplusia ni”, “membranes” for “membranes (Tni; Expression Systems, cat #94-002F, www.expressionsystems.com)”, “HAQ” for “WT”
as §1, with “www.exrpressionsystems.com)” for “www.expressionsystems.com)”, “HAQ” for “WT”
The basic HAQ STING filtration assay protocol is as follows:
Compound and membrane then preincubated for 60 min at RT to allow compound binding to equilibrate. Following equilibration, 8 nM of [^3H] c-GAMP ligand was prepared by diluting into assay buffer, and 50 uL of this working stock was then manually added to each well of the assay plate. […] The filter plates were then dried at 55° C. for 30 min using a pressurized VWR oven before 30 uL of Ultima GoldF scintillate was added to each well. Tritium levels for each reaction well were then measured using a PerkinElmer TopCount plate reader.
as §2

full-length WT STING, sequence (Q86WV6 other isoform, or with tags, fused parts or gaps H232R (already in the parent)): as the sequence (Q86WV6 other isoform, or with tags, fused parts or gaps, stated change not applied) above, with H71R, A230G, Q293R counted along it

EC50 [1] [nM]	EC50 [3] [nM]	SMILES	% Effect at 30 μM relative to 2′3′-cGAMP [2] [%]	activation at 30 µM [2] [%]
	< 1	Nc1nc2c(ncn2[C@@H]2O[C@@H]3COP(=O)(O)O[C@@H]4[C@H](F)[C@@H](COP(=O)(O)O[C@@H]2[C@@H]3F)O[C@H]4n2cnc3c(N)ncnc32)c(=O)[nH]1 [Example 11, 2-amino-9-[(1S,6R,8R,9S,14R,16R,17R,18R)-16-(6-amino-9H-purin-9-yl)-17,18-difluoro-3,11-dihydroxy-3,11-dioxido-2,4,7,10,12,15-hexaoxa-3,11-diphosphatricyclo[12.2.1.1^6,9]octadec-8-yl]-1,9-dihydro-6H-purin-6-one]		131
	18.2	Nc1nc2c(ncn2[C@@H]2O[C@@H]3COP(=O)(O)O[C@@H]4[C@H](O)[C@@H](COP(=O)(O)O[C@@H]2C3)O[C@H]4n2cnc3c(N)ncnc32)c(=O)[nH]1 [Example 2, 2-amino-9-[(1R,6S,8R,9R,14R,16R,17R)-16-(6-amino-9H-purin-9-yl)-3,11,17-trihydroxy-3,11-dioxido-2,4,7,10,12,15-hexaoxa-3,11-diphosphatricyclo[12.2.1.1^6,9]octadec-8-yl]-1,9-dihydro-6H-purin-6-one]		123
	< 1	[N-]=[N+]=N[C@H]1[C@H]2OP(=O)(O)OC[C@H]3O[C@@H](n4cnc5c(N)ncnc54)[C@H](OP(=O)(O)OC[C@H]1O[C@H]2n1cnc2c(=O)[nH]c(N)nc21)[C@@H]3O [Example 5, 2-amino-9-[(1R,6S,8R,9R,14R,16R,17R,18R)-16-(6-amino-9H-purin-9-yl)-18-azido-3,11,17-trihydroxy-3,11-dioxido-2,4,7,10,12,15-hexaoxa-3,11-diphosphatricyclo[12.2.1.1^6,9]octadec-8-yl]-1,9-dihydro-6H-purin-6-one]		145
7350		Nc1nc2c(ncn2[C@@H]2O[C@@H]3COP(=O)(S)O[C@@H]4[C@@H](F)[C@@H](COP(=O)(S)O[C@@H]2[C@H]3F)O[C@H]4n2cnc3c(=O)[nH]c(N)nc32)c(=O)[nH]1 (stereo partly drawn) [Example 30, 9,9′-[(1S,6R,8R,9S,14R,16R,17S,18S)-17,18-difluoro-3,11-dioxido-3,11-disulfanyl-2,4,7,10,12,15-hexaoxa-3,11-diphosphatricyclo[12.2.1.1^6,9]octadecane-8,16-diyl]bis(2-amino-1,9-dihydro-6H-purin-6-one)]		8
	6.6	Nc1ncnc2c1ncn2[C@@H]1O[C@@H]2COP(=O)(S)O[C@@H]3[C@H](O)[C@@H](COP(=O)(S)O[C@@H]1[C@@H]2O)O[C@H]3n1cnc2c(N)ncnc21 (stereo partly drawn) [Example 27, (1R,6R,8R,9R,14R,16R,17R,18R)-8,16-bis(6-amino-9H-purin-9-yl)-3,11-disulfanyl-2,4,7,10,12,15-hexaoxa-3,11-diphosphatricyclo[12.2.1.1^6,9]octadecane-17,18-diol 3,11-dioxide]		76

The next lines start with the molecule.

SMILES	EC50 [1] [nM]	EC50 [3] [nM]	% Effect at 30 μM relative to 2′3′-cGAMP [2] [%]	activation at 30 µM [2] [%]
Nc1nc2c(ncn2[C@@H]2O[C@@H]3COP(O)(=S)O[C@@H]4[C@H](F)[C@@H](COP(O)(=S)O[C@@H]2[C@@H]3F)O[C@H]4n2cnc3c(=O)[nH]c(N)nc32)c(=O)[nH]1 (single isomer, unassigned) [Example 24]	1.2		84	
Nc1nc2c(ncn2[C@@H]2O[C@@H]3COP(O)(=S)O[C@@H]4[C@H](F)[C@@H](COP(O)(=S)O[C@@H]2[C@@H]3F)O[C@H]4n2cnc3c(=O)[nH]c(N)nc32)c(=O)[nH]1 (single isomer, unassigned) [Example 22]	< 1		129	
C[C@H]1OP(=O)(O)O[C@@H]2[C@H](F)[C@@H](COP(=O)(O)O[C@@H]3[C@H](O)[C@@H]1O[C@H]3n1cnc3c(N)ncnc31)O[C@H]2n1cnc2c(=O)[nH]c(N)nc21 [Example 7, 2-amino-9-[(1R,6R,8R,9S,13R,14S,16R,17R,18R)-16-(6-amino-9H-purin-9-yl)-18-fluoro-3,11,17-trihydroxy-13-methyl-3,11-dioxido-2,4,7,10,12,15-hexaoxa-3,11-diphosphatricyclo[12.2.1.16,9]octadec-8-yl]-1,9-dihydro-6H-purin-6-one]		45.2		59
Nc1nc2c(ncn2[C@@H]2O[C@@H]3COP(=O)(O)O[C@@H]4C[C@@H](COP(=O)(O)O[C@@H]2[C@@H]3F)O[C@H]4n2cnc3c(N)ncnc32)c(=O)[nH]1 [Example 9, 2-amino-9-[(1R,6R,8R,9S,14S,16R,18R)-16-(6-amino-9H-purin-9-yl)-18-fluoro-3,11-dihydroxy-3,11-dioxido-2,4,7,10,12,15-hexaoxa-3,11-diphosphatricyclo[12.2.1.1^6,9]octadec-8-yl]-1,9-dihydro-6H-purin-6-one]		3.7		115
Nc1nc2c(nnn2[C@@H]2O[C@@H]3COP(=O)(S)O[C@@H]4[C@H](F)[C@@H](COP(=O)(S)O[C@@H]2[C@@H]3F)O[C@H]4n2nnc3c(=O)[nH]c(N)nc32)c(=O)[nH]1 (stereo partly drawn) [Example 31, 3,3′-[(1S,6R,8R,9S,14R,16R,17R,18R)-17,18-difluoro-3,11-dioxido-3,11-disulfanyl-2,4,7,10,12,15-hexaoxa-3,11-diphosphatricyclo[12.2.1.1^6,9]octadecane-8,16-diyl]bis(5-amino-3,6-dihydro-7H-[1,2,3]triazolo[4,5-d]pyrimidin-7-one)]	< 1			57
Nc1nc2c(ncn2[C@@H]2O[C@@H]3COP(O)(=S)O[C@@H]4[C@H](F)[C@@H](COP(O)(=S)O[C@@H]2[C@@H]3F)O[C@H]4n2cnc3c(=O)[nH]c(N)nc32)c(=O)[nH]1 (single isomer, unassigned) [Example 23]	4		135	
Nc1nc2c(ncn2[C@@H]2O[C@@H]3COP(=O)(O)O[C@@H]4C[C@@H](COP(=O)(O)O[C@@H]2C3)O[C@H]4n2cnc3c(N)ncnc32)c(=O)[nH]1 [Example 12, 2-amino-9-[(1R,6S,8R,9R,14S,16R)-16-(6-amino-9H-purin-9-yl)-3,11-dihydroxy-3,11-dioxido-2,4,7,10,12,15-hexaoxa-3,11-diphosphatricyclo[12.2.1.1^6,9]octadec-8-yl]-1,9-dihydro-6H-purin-6-one]		674		50
